Drawing on paper PMC12040169 (PLOS Biology, 2025), this text covers viability for 86 compounds.

A short description of the data set: in vitro. Conditions: human, hela cells.

For the compound `CC(C)Oc1ncccc1OCc1ccccc1` [CBK001457], the viability at 28.5 h, 10 µM (% viability) worked out at 124%.
As to `Brc1ncccc1OCc1ccccc1` [CBK001458], the viability at 28.5 h, 10 µM (% viability) turned out to be 82.6%.
For `CCCOc1ncccc1O` [CBK001459], where the note is “% viability”, the viability at 28.5 h, 10 µM was 89.7%.
The same measure, in the same setting: to `OCCOc1cccnc1OCC1CC1` [CBK001461] belongs 89.4%.
Same read-out and setting: to `Cc1nn(C)c(=O)c2c(C)noc12` [CBK001462] belongs 101%.
Same read-out and setting: in the case of `CC(C)Oc1ncccc1OCCO` [CBK001465] it was 112%.
Regarding `Cc1ccc(S(=O)(=O)Nc2ccc(N3C[C@@H](C)N[C@@H](C)C3)c3ccccc23)cc1` [CBK001486C], under “% viability”, the viability at 28.5 h, 10 µM was found to be 87.8%.
For the compound `CC(N)c1cc2ccccc2o1` (centres unmarked) [CBK001492C], the viability at 28.5 h, 10 µM (% viability, bulk resorufin, single well) came out at 97.7%.
Consider `CCNc1cc(N2CCN(C)CC2)ccc1NS(=O)(=O)c1ccc(F)cc1F` [CBK001496C], for which the viability at 28.5 h, 10 µM (% viability) turned out to be 95.8%.
On to `CN1CCCN(c2ccc(NS(=O)(=O)c3ccc(F)cc3F)c3ccccc23)CC1` [CBK001499C], for which the viability at 28.5 h, 10 µM (% viability) stood at 64.8%.
The same measure, in the same setting: to `CCC1CNCCN1c1nccnc1OCCOc1cccnc1` (centres unmarked) [CBK001559F] belongs 121%; to `COC(=O)c1cccc2c(C)c(C)[nH]c12` [CBK001563], 97.4%.
Still for that read-out and setting: in the case of `C[C@@H]1CN(Cc2ccccc2)C[C@H](C)N1` [CBK001569] it was 86.1%.
The same measure, in the same setting: to `CCCCN(CCCC)c1nccnc1Cl` [CBK001576] belongs 94.7%.
For `Cc1ccc2oc([C@H]3CN(C(=O)C4CCN(C(=O)OC(C)(C)C)CC4)C[C@@H]3C(=O)O)cc2c1` [CBK001601], the viability at 28.5 h, 10 µM (% viability) turned out to be 90.7%.
Still for that read-out and setting: in the case of `CC(=O)N1CCc2ccc(S(=O)(=O)n3ccc4c(N5CCNCC5)cccc43)cc2C1` [CBK001632C] it was 101%; in that of `COC(=O)c1cccc2c1[nH]c1ccccc12` [CBK001709], 99.9%; in that of `NC(=O)c1cccc(COc2ccccc2C(=O)Nc2ccc(-c3ccsc3)cc2C(=O)O)c1` [CBK001718], 82.6%.
Same read-out and setting: in the case of `OCc1ccnc2ccccc12` [CBK001746] it was 87.4%; in that of `OCCOc1cccc2cccnc12` [CBK001784], 104%.
In the case of `OCCOc1nc2ccccc2s1` [CBK001812], the viability at 28.5 h, 10 µM (% viability) came to 97.2%.
The same measure, in the same setting: to `c1cncc(OCCOc2nsnc2N2CCNCC2)c1` [CBK001825G] belongs 94.4%; to `c1cnc(N2CCNCC2)c(OC2CCCCC2)n1` [CBK001837C], 92.7%; to `CCCOc1nccnc1N1CCNCC1` [CBK001839G], 82.4%.
As for `Cc1cc(N2CCN(C(=O)OC(C)(C)C)CC2)nc(N)n1` [CBK001843], the viability at 28.5 h, 10 µM (% viability) was found to be 110%.
Same read-out and setting: to `c1cc(CNCCN2CCOCC2)cs1` [CBK001894] belongs 105%.
Regarding `CCOc1nccnc1N1CCNCC1` [CBK001899G], where the note is “% viability”, the viability at 28.5 h, 10 µM stood at 93.1%.
Take `CCCCCOc1nccnc1N1CCNCC1` [CBK001901G]: where the note is “% viability”, the viability at 28.5 h, 10 µM came out at 103%.
For the compound `COCCOc1nccnc1N1CCNCC1` [CBK001903G], the viability at 28.5 h, 10 µM (% viability) was determined as 103%.
On to `CNC(=O)N1CC(=O)N(Cc2cccc(Cl)c2)C1=O` [CBK001918], for which the viability at 28.5 h, 10 µM (% viability) is 104%.
The same measure, in the same setting: to `Cc1ccc(S(=O)(=O)n2nncc2C)cc1` [CBK001921] belongs 111%; to `COc1ccc(-c2oc(C(=O)N(C)C)c(C(=O)O)c2-c2ccc(OC)cc2)cc1` [CBK001958], 90.5%; to `OCCOc1ccccc1-c1nnco1` [CBK001972], 92.6%.
Same read-out and setting: in the case of `O=S(=O)(c1ccccc1)n1ccc2c(Br)cccc21` [CBK002084] it was 113%.
Same read-out and setting: to `CC(C)(C)OC(=O)N1CCN(c2ccnc(Cl)n2)CC1` [CBK002095] belongs 120%; to `COc1ccccc1N1CCN(C(=O)N(CCN)CCC(C)c2ccccc2)CC1` (centres unmarked) [CBK002137C], 88.7%.
Turning to `N#CC(CCCN1CCC(O)(c2ccccc2)CC1)(c1ccccc1)c1ccccc1` [CBK002145], the viability at 28.5 h, 10 µM came to 105%.
For the compound `O=C(CSc1ccccc1)c1ccccc1` [CBK002224], the viability at 28.5 h, 10 µM (% viability) worked out at 97.4%.
Take `CCOC(=O)c1c(-c2ccc(OC)cc2)noc1C(O)c1ccccc1` (centres unmarked) [CBK002296]: the viability at 28.5 h, 10 µM (% viability) amounted to 90.6%.
Same read-out and setting: in the case of `Oc1cc(C(F)(F)F)nc(SCc2ccc(Cl)cc2)n1` [CBK002305] it was 106%.
The same measure, in the same setting: to `CC(CCN(CCN)C(=O)N1CCC(CNS(C)(=O)=O)(c2ccccc2)CC1)c1ccccc1` (centres unmarked) [CBK002335C] belongs 82.9%; to `Oc1cc(C(F)(F)F)nc(N2CCCC2)n1` [CBK002389], 105%; to `Oc1cc(C(F)(F)F)nc(NCc2ccc(-c3ccccc3)cc2)n1` [CBK002395], 105%.
Same read-out and setting: to `Cc1cccc(CN(CC(C)(C)CN)C(=O)Nc2ccccc2C(F)(F)F)n1` [CBK002409C] belongs 105%; to `COc1ccc(F)c(CN(CC(C)(C)CN)C(=O)Nc2ccccc2C(F)(F)F)c1` [CBK002412C], 90.1%; to `Cc1ccc(NC(=O)N(Cc2ccccc2Br)CC(C)(C)CN)cc1[N+](=O)[O-]` [CBK002436C], 111%.
For `Cc1ccc(NC(=O)N(Cc2ccc(-c3ccccc3)cc2)CC(C)(C)CN)cc1[N+](=O)[O-]` [CBK002439C], the viability at 28.5 h, 10 µM (% viability) was 83.7%.
With `Cc1cccc(CN(CC(C)(C)CN)C(=O)Nc2ccc(-c3ccccc3)cc2)n1` [CBK002453C], the viability at 28.5 h, 10 µM (% viability) was 86.7%.
For `CC(C)(CN)CN(Cc1ccccc1Br)C(=O)NCc1ccc(F)cc1` [CBK002469C], the viability at 28.5 h, 10 µM (% viability) was found to be 92.9%.
In the case of `COc1ccccc1CN(CC(C)(C)CN)C(=O)NCc1ccc(F)cc1` [CBK002470C], for the setting “% viability”, the viability at 28.5 h, 10 µM amounted to 87%.
Still for that read-out and setting: to `CC(C)(CN)CN(Cc1ccccc1C(F)(F)F)C(=O)NCc1ccc(F)cc1` [CBK002471C] belongs 87.8%.
Still for that read-out and setting: to `CC(C)(CN)CN(Cc1cccc(Cl)c1)C(=O)Nc1ccc2c(c1)OCO2` [CBK002482C] belongs 107%; to `Fc1ccccc1Oc1nnnn1-c1ccccc1` [CBK002526], 98.2%.
On the same count and under the same terms, in the case of `COc1cc(C#N)ccc1Oc1ccc([N+](=O)[O-])cc1C(F)(F)F` [CBK002544] it was 104%.
Take `COc1cc(C#N)ccc1Oc1ccc([N+](=O)[O-])cn1` [CBK002569]: under “% viability”, the viability at 28.5 h, 10 µM worked out at 108%.
For the compound `COc1cc(C#N)ccc1OCc1ccccc1` [CBK002577], the viability at 28.5 h, 10 µM (% viability) is 62%.
Still for that read-out and setting: in the case of `COc1cc(C#N)ccc1OCc1cc(C)on1` [CBK002581] it was 86.1%.
As for `COc1cc(C#N)ccc1OCc1ccc2nc(C(F)(F)F)cc(Cl)c2c1` [CBK002589], the viability at 28.5 h, 10 µM (% viability) came to 98.3%.
The same measure, in the same setting: in the case of `O=[N+]([O-])c1ccc(Oc2cccc(Cl)c2Cl)c(C(F)(F)F)c1` [CBK002594] it was 82.8%.
The same measure, in the same setting: to `O=[N+]([O-])c1cc(F)ccc1Oc1cccc(Cl)c1Cl` [CBK002604] belongs 112%; to `N#Cc1ccc(COc2cccc(Cl)c2Cl)cc1` [CBK002611], 92.5%.
With `Cc1cc(CSc2cccs2)no1` [CBK002635], where the note is “% viability”, the viability at 28.5 h, 10 µM came out at 91.8%.
Still for that read-out and setting: to `N#Cc1ccccc1-c1ccc(CSc2cccs2)cc1` [CBK002638] belongs 90.5%; to `Clc1ccc(COc2cccc3cccnc23)cn1` [CBK002718], 93.2%.
The same measure, in the same setting: to `O=[N+]([O-])c1ccc(Oc2cccc3cccnc23)c(F)c1` [CBK002750] belongs 60.4%; to `O=[N+]([O-])c1cccnc1Oc1cccc2cccnc12` [CBK002760], 97.4%.
For `COc1ccccc1OCc1ccc(Cl)s1` [CBK002782], where the note is “% viability”, the viability at 28.5 h, 10 µM came out at 82.7%.
On the same count and under the same terms, to `FC(F)(F)c1cccc(Oc2nnnn2-c2ccccc2)c1` [CBK002798] belongs 92.6%; to `N#Cc1ccc(Oc2cccc(C(F)(F)F)c2)c(F)c1` [CBK002801], 88.3%; to `COc1ccccc1OCc1ccccc1` [CBK002814], 105%.
Same read-out and setting: to `Cc1ccc(Oc2ccc([N+](=O)[O-])cc2F)c(Br)c1` [CBK002821] belongs 90.3%.
Consider `Cc1ccc(Oc2nnnn2-c2ccccc2)c(Br)c1` [CBK002827], for which, under “% viability”, the viability at 28.5 h, 10 µM worked out at 106%.
For `Cc1ccc(OCc2cc(C)on2)c(Br)c1` [CBK002837], under “% viability”, the viability at 28.5 h, 10 µM amounted to 109%.
Turning to `COc1ccccc1Oc1ccc(C(F)(F)F)cc1[N+](=O)[O-]` [CBK002845], under “% viability”, the viability at 28.5 h, 10 µM turned out to be 99%.
On the same count and under the same terms, to `COc1ccccc1Oc1ccc([N+](=O)[O-])cc1F` [CBK002850] belongs 90.8%.
Turning to `O=C(O)[C@@H]1CCCN1c1nc(O)cc(C(F)(F)F)n1` [CBK002865], the viability at 28.5 h, 10 µM (% viability) was 81.3%.
As for `Fc1cccc(SCc2ccccc2)c1` [CBK002912], where the note is “% viability”, the viability at 28.5 h, 10 µM is 117%.
On the same count and under the same terms, in the case of `Cc1cc(=O)oc2cc(Sc3sccc3[N+](=O)[O-])ccc12` [CBK002936] it was 90.5%; in that of `Cc1nn(C)c(Sc2ccccc2)c1[N+](=O)[O-]` [CBK002937], 97.9%; in that of `Cc1cc(=O)oc2cc(Sc3ccc([N+](=O)[O-])cc3)ccc12` [CBK002954], 95.7%.
On to `CN1CCN(c2nc(NS(=O)(=O)c3ccc(OC(F)(F)F)cc3)cc3ccccc23)CC1` [CBK002978C], for which the viability at 28.5 h, 10 µM (% viability) came out at 87.7%.
With `NCCC(=O)N(CCc1cc(C(F)(F)F)cc(C(F)(F)F)c1)c1ccc(Oc2ccccc2)cc1` [CBK002998T], the viability at 28.5 h, 10 µM (% viability) turned out to be 97.7%.
The same measure, in the same setting: to `OC(CNCCc1ccccc1)COc1c(Br)cccc1Br` (centres unmarked) [CBK003071] belongs 94%.
As to `Cc1cccc(Cl)c1OCC(O)CNCCc1ccccc1` (centres unmarked) [CBK003076], where the note is “% viability”, the viability at 28.5 h, 10 µM came out at 102%.
Same read-out and setting: in the case of `OC(COc1c(Br)cccc1Br)CN1CCCCC1` (centres unmarked) [CBK003077T] it was 90.9%; in that of `CC(C)c1cccc(C(C)C)c1OCC(O)CN1CCCCC1` (centres unmarked) [CBK003079T], 94.6%.
